Drawing on patent US20230295201A1 (Gilead Sciences, Inc., priority 2020, published 2023), this text covers EC50 for 16 compounds.

What all share (assay type): cell-based
One assay relates to RSV strain A2. The experiment in a line: RSV HEp-2 EC50 (infectious cytopathic cell protection assay). The conditions noted are these: HEp-2 cells, RSV A2, 4 days, read-out: RSV HEp-2 EC50. The gist of the method:
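Percent inhibition of RSV-induced cytopathic effect came from remaining cell viability (CellTiter-Glo luminescence) after 4 days at 37° C. Compounds in 3-fold serial dilutions were exposed to an infectious mix of titered A2 virus and HEp-2 cells at 50,000/ml, with 0% and 100% inhibition control standards.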

The subject of the next assay is RSV A2. Nature of the assay: RSV NHBE EC50 (RSV A2 antiviral assay in normal human bronchial epithelial cells). Particulars: NHBE cells, RSV A2, 4 days, read-out: RSV NHBE EC50.
In the next assay the test system is HRV16. Nature of the assay: HRV16 HELA EC50 (cytopathic effect in H1-HeLa cells). The gist of the method: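 Read-out is luminescent cell viability (CellTiter-Glo) after 96 h of infection at 33 °C, scaled between uninfected and infected-untreated wells. Before infection with titrated virus, compounds went onto H1-HeLa cells as triplicate 3-fold dilution series.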

The test system of another assay is DENV2 replicon. The experiment in a line: DENV-2 Huh-7 Rep EC50 (replicon luminescence). The conditions noted are these: read-out: DENV-2 Huh-7 Rep EC50. The gist of the method: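 EC50 derived from luminescence dose-response, normalised to DMSO-only 0% inhibition wells, after 1.5 h with EnduRen substrate. Compounds were first exposed for 48 h at 37° C to DENV2 replicon Huh-7 cells (5,000/well).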

The mark [1] stands for this setting: human respiratory syncytial virus, HEp-2, 96 h.
The mark [2] stands for this setting: human respiratory syncytial virus, NHBE, 96 h.
Setting [3] is: 96 h, H1-HeLa cells, 33° C., read-out: HRV16 HELA EC50.
[4] abbreviates: Dengue virus, DENV2, Huh-7, 48 h, Huh-7 replicon cells, 48 hours.
Where [5] appears, read: H1-HeLa cells, 96 h, 33° C.; read-out: HRV16 HELA EC50.
[6] abbreviates: human respiratory syncytial virus, 96 h.
Where [7] appears, read: Dengue virus, DENV2, Huh-7, 48 h.

Where two headings read alike, the source gives them in different places.

For the compound `COC1CCC(OC(=O)[C@H](C)NP(=O)(OC[C@@]2(C#N)O[C@@H](c3ccc4c(N)ncnn34)[C@H](O)[C@@H]2O)Oc2ccccc2)CC1` (stereo partly drawn) [Example 165, 4-methoxycyclohexyl ((((2R,3S,4R,5S)-5-(4-aminopyrrolo[2,1-f][1,2,4]triazin-7-yl)-2-cyano-3,4-dihydroxytetrahydrofuran-2-yl)methoxy)(phenoxy)phosphoryl)alaninate], the EC50 in the assay with RSV strain A2 (setting [1]) was 1.94 µM; in the assay with RSV A2 (setting [2]), 1.61 µM; in the assay on HRV16 (setting [3]) it was 11.3 µM; with DENV2 replicon (setting [4]), > 100 µM.
In the case of `C[C@H](NP(=O)(OC[C@@]1(C#N)O[C@@H](c2ccc3c(N)ncnn23)[C@H](O)[C@@H]1O)Oc1ccccc1)C(=O)OC1CCCN(CC(F)(F)F)CC1` (stereo partly drawn) [Example 204, 1-(2,2,2-trifluoroethyl)azepan-4-yl ((((2R,3S,4R,5S)-5-(4-aminopyrrolo[2,1-f][1,2,4]triazin-7-yl)-2-cyano-3,4-dihydroxytetrahydrofuran-2-yl)methoxy)(phenoxy)phosphoryl)alaninate], the EC50 in the assay with RSV strain A2 (setting [1]) came out at 0.463 µM; in the assay with RSV A2 (setting [2]), 0.628 µM; in the assay with HRV16 (setting [3]), 1.38 µM; with DENV2 replicon (setting [4]), 27.5 µM.
In the case of `CCCCCOC(=O)C[C@H](NP(=O)(OC[C@@]1(C#N)O[C@@H](c2ccc3c(N)ncnn23)[C@H](O)[C@@H]1O)Oc1ccccc1)C(=O)OCCCCC` (stereo partly drawn) [Example 215, Dipentyl ((((2R,3S,4R,5S)-5-(4-aminopyrrolo[2,1-f][1,2,4]triazin-7-yl)-2-cyano-3,4-dihydroxytetrahydrofuran-2-yl)methoxy)(phenoxy)phosphoryl)-L-aspartate], the EC50 was 1.1 µM in the assay with RSV strain A2 (setting [1]), > 3 µM in the assay with RSV A2 (setting [2]), 3.39 µM with HRV16 (setting [3]) and 44.3 µM with DENV2 replicon (setting [4]).
Take `C[C@H](NP(=O)(OC[C@@]1(C#N)O[C@@H](c2ccc3c(N)ncnn23)[C@H](O)[C@@H]1O)Oc1ccccc1)C(=O)OC1CCC(C)(C)CC1` (stereo partly drawn) [Example 183, 4,4-dimethylcyclohexyl ((((2R,3S,4R,5S)-5-(4-aminopyrrolo[2,1-f][1,2,4]triazin-7-yl)-2-cyano-3,4-dihydroxytetrahydrofuran-2-yl)methoxy)(phenoxy)phosphoryl)-L-alaninate]: the EC50 amounted to 0.08 µM in the assay with RSV strain A2 (setting [1]), 1.2 µM in the assay with RSV A2 (setting [2]), 0.173 µM with HRV16 (setting [3]) and 17.3 µM with DENV2 replicon (setting [4]).
As for `CCC(CC)OC(=O)[C@H](CC)NP(=O)(OC[C@@]1(C#N)O[C@@H](c2ccc3c(N)ncnn23)[C@H](O)[C@@H]1O)Oc1ccccc1` (mixture of isomers) [Example 115, (2S)-pentan-3-yl 2-(((((2R,3S,4R,5S)-5-(4-aminopyrrolo[2,1-f][1,2,4]triazin-7-yl)-2-cyano-3,4-dihydroxytetrahydrofuran-2-yl)methoxy)(phenoxy)phosphoryl)amino)butanoate], the concentration giving a half-maximal response (EC50) was 8.66 µM in the assay with RSV strain A2 (setting [1]), 1.55 µM in the assay with RSV A2 (setting [2]), 10.3 µM in the assay with HRV16 (setting [3]) and > 50 µM with DENV2 replicon (setting [4]).
As to `CCC(CC)COC(=O)[C@H](CCCCNC(=O)OCc1ccccc1)NP(=O)(OC[C@@]1(C#N)O[C@@H](c2ccc3c(N)ncnn23)[C@H](O)[C@@H]1O)Oc1ccccc1` (stereo partly drawn) [Example 79, 2-ethylbutyl N2-((((2R,3S,4R,5S)-5-(4-aminopyrrolo[2,1-f][1,2,4]triazin-7-yl)-2-cyano-3,4-dihydroxytetrahydrofuran-2-yl)methoxy)(phenoxy)phosphoryl)-N6-((benzyloxy)carbonyl)-L-lysinate], the concentration for a half-maximal effect (EC50) with RSV strain A2 (setting [1]) is > 50 µM; in the assay with RSV A2 (setting [2]), > 5 µM; in the assay with HRV16 (setting [3]) it was > 34.8 µM; in the assay on DENV2 replicon (setting [4]), 40.2 µM.
`Cc1oc(=O)oc1COC(=O)C1(NP(=O)(OC[C@@]2(C#N)O[C@@H](c3ccc4c(N)ncnn34)[C@H](O)[C@@H]2O)Oc2ccccc2)CCC1` (stereo partly drawn) [Example 125, (5-methyl-2-oxo-1,3-dioxol-4-yl)methyl 1-(((((2R,3S,4R,5S)-5-(4-aminopyrrolo[2,1-f][1,2,4]triazin-7-yl)-2-cyano-3,4-dihydroxytetrahydrofuran-2-yl)methoxy)(phenoxy)phosphoryl)amino)cyclobutane-1-carboxylate]: the EC50 with RSV strain A2 (setting [1]) is 3.3 µM; with RSV A2 (setting [2]), 3.65 µM; in the assay on HRV16 (setting [3]) it was 7.65 µM; in the assay on DENV2 replicon (setting [4]), > 100 µM.
As for `CC(C)OC(=O)[C@@H](C)NP(=O)(OC[C@@]1(C#N)O[C@@H](c2ccc3c(N)ncnn23)[C@H](O)[C@@H]1O)Oc1ccccc1` (stereo partly drawn) [Example 86, (2R)-isopropyl 2-(((((2R,3S,4R,5S)-5-(4-aminopyrrolo[2,1-f][1,2,4]triazin-7-yl)-2-cyano-3,4-dihydroxytetrahydrofuran-2-yl)methoxy)(phenoxy)phosphoryl)amino)propanoate], the concentration giving a half-maximal response (EC50) in the assay with RSV strain A2 (setting [1]) is 22.6 µM; in the assay on RSV A2 (setting [2]), > 5 µM; in the assay with HRV16 (setting [3]), > 50 µM; in the assay on DENV2 replicon (setting [4]), > 50 µM.
In the case of `COC(C)(C)COC(=O)[C@H](C)NP(=O)(OC[C@@]1(C#N)O[C@@H](c2ccc3c(N)ncnn23)[C@H](O)[C@@H]1O)Oc1ccccc1` (stereo partly drawn) [Example 164, 2-methoxy-2-methylpropyl ((((2R,3S,4R,5S)-5-(4-aminopyrrolo[2,1-f][1,2,4]triazin-7-yl)-2-cyano-3,4-dihydroxytetrahydrofuran-2-yl)methoxy)(phenoxy)phosphoryl)-L-alaninate], the EC50 was 1.22 µM with RSV strain A2 (setting [1]), 0.724 µM in the assay on RSV A2 (setting [2]), 4 µM in the assay on HRV16 (setting [3]) and > 50 µM in the assay with DENV2 replicon (setting [4]).
In the same order, the values of `N#C[C@]1(COP(=O)(N[C@H](C(=O)OCC2CC2)C2CCCC2)Oc2ccccc2)O[C@@H](c2ccc3c(N)ncnn23)[C@H](O)[C@@H]1O` (stereo partly drawn) [Example 123, (2S)-cyclopropylmethyl 2-(((((2R,3S,4R,5S)-5-(4-aminopyrrolo[2,1-f][1,2,4]triazin-7-yl)-2-cyano-3,4-dihydroxytetrahydrofuran-2-yl)methoxy)(phenoxy)phosphoryl)amino)-2-cyclopentylacetate] are > 100 µM, > 5 µM, > 100 µM and 48.5 µM.
In the case of `CCCOC(=O)C(C)NP(=O)(OCC1(C#N)OC(c2ccc3c(N)ncnn23)C(O)C1O)Oc1ccccc1` (single isomer, unassigned) [Example 47], the EC50 with RSV strain A2 was found to be 0.051 µM; with RSV A2, 0.162 µM; in the assay with HRV16 (setting [5]), 0.56 µM; in the assay on DENV2 replicon (Huh-7 replicon cells, 48 hours), 9.19 µM.
`C[C@H](NP(=O)(N[C@@H](C)C(=O)OCC(C)(C)C)OC[C@@]1(C#N)O[C@@H](c2ccc3c(N)ncnn23)[C@H](O)[C@@H]1O)C(=O)OCC(C)(C)C` [Example 182]: the concentration giving a half-maximal response (EC50) in the assay on RSV strain A2 (setting [6]) is 1.17 µM; in the assay with RSV A2 (setting [6]), 2.09 µM; in the assay on HRV16 (setting [5]), 8.56 µM; in the assay with DENV2 replicon (setting [7]), > 50 µM.
Consider `C[C@@H](NP(=O)(OC[C@@]1(C#N)O[C@@H](c2ccc3c(N)ncnn23)[C@H](O)[C@@H]1O)Oc1ccccc1)C(=O)OCC(C)(C)C` (stereo partly drawn) [Example 102, (2R)-neopentyl 2-(((((2R,3S,4R,5S)-5-(4-aminopyrrolo[2,1-f][1,2,4]triazin-7-yl)-2-cyano-3,4-dihydroxytetrahydrofuran-2-yl)methoxy)(phenoxy)phosphoryl)amino)propanoate], for which the EC50 in the assay on RSV strain A2 (setting [1]) was 9.95 µM; with RSV A2 (setting [2]) it was > 5 µM; in the assay on HRV16 (setting [3]), 16.7 µM; in the assay on DENV2 replicon (setting [4]), > 100 µM.
The matching figures for `CCC(CC)COC(=O)[C@H](CC1CC1)NP(=O)(OC[C@@]1(C#N)O[C@@H](c2ccc3c(N)ncnn23)[C@H](O)[C@@H]1O)Oc1ccccc1` (stereo partly drawn) [Example 132, (2S)-2-ethylbutyl 2-(((((2R,3S,4R,5S)-5-(4-aminopyrrolo[2,1-f][1,2,4]triazin-7-yl)-2-cyano-3,4-dihydroxytetrahydrofuran-2-yl)methoxy)(phenoxy)phosphoryl)amino)-3-cyclopropylpropanoate]: 1.99 µM, 0.523 µM, 22.4 µM and 44.6 µM.
Regarding `CC(C)OP1(=O)OC[C@@]2(C#N)O[C@@H](c3ccc4c(N)ncnn34)[C@H](O)[C@@H]2O1` (stereo partly drawn) [Example 163, (4aR,6S,7S,7aS)-6-(4-aminopyrrolo[2,1-f][1,2,4]triazin-7-yl)-7-hydroxy-2-isopropoxydihydro-4H-furo[3,2-d][1,3,2]dioxaphosphinine-4a(6H)-carbonitrile 2-oxide], the concentration giving a half-maximal response (EC50) was 13.3 µM with RSV strain A2 (setting [6]), 9.21 µM with RSV A2 (setting [6]), > 50 µM with HRV16 (setting [5]) and > 50 µM in the assay with DENV2 replicon (setting [7]).
As for `CCCCCOC(=O)C[C@H](N[P@@](=O)(OC[C@@]1(C#N)O[C@@H](c2ccc3c(N)ncnn23)[C@H](O)[C@@H]1O)Oc1ccccc1)C(=O)OCCCCC` [Example 216], the EC50 was 4.23 µM with RSV strain A2; > 4.39 µM with RSV A2; 32.8 µM in the assay with HRV16 (setting [5]); 33 µM in the assay on DENV2 replicon (Huh-7 replicon cells, 48 hours).
